Measured values: patent US12251373B2, “Compounds and methods of treating retinal degeneration” (CASE WESTERN RESERVE UNIVERSITY, priority 2017, dated 2025)
pEC50: −log10 of the molar value.

Assays:
rod opsin = biological target: T1, rod opsin (Mus musculus, UniProt P15409); assay: cAMP quantification assay in NIH3T3-(WT-opsin/GFP) cells; assay type: cell-based
T1 construct: expressed in transfected cells
Text: Three NIH3T3 stable cell lines, NIH3T3-(WT-opsin/GFP), NIH3T3-(P23H-opsin/GFP), and NIH3T3-(GFP) were previously generated which stably express mouse WT opsin and GFP; P23H opsin and GFP; and only GFP, respectively. GFP is expressed separately from opsin in these cell lines. NIH3T3 cells were from ATCC. DNA constructs for generating these stable cell lines were confirmed by Sanger sequencing. Expression of GFP was confirmed by green fluorescence imaging, and expression of P23H and WT opsin were confirmed by immunoblots.
NIH3T3-(Opsin/GFP) and NIH3T3-(GFP) were plated in two 96-well plates at a density of 50,000 cells per well in 100 μl of DMEM medium containing 10% FBS and antibiotics. After 24 h, cells were washed with Krebs Ringer bicarbonate buffer containing glucose (KRBG), and incubated with KRBG buffer containing 100 μM cAMP specific phosphodiesterase inhibitor, Ro 20-1724 (Tocris, UK) at RT for 10 min. […] While one plate then was wrapped with aluminum foil, the second plate was exposed to regular room light. Both plates were kept in a cell culture incubator for 15 min at 37° C. in 5% CO2. Levels of accumulated cAMP were detected with the Catchpoint cAMP fluorescent assay kit (Molecular Devices, Sunnyvale, CA USA) and the fluorescence with excitation/emission at 530/590 nm was read with a Flexstation3 plate reader (Molecular Devices) as described in the manufacturer's protocol.

bovine rod opsin = biological target: T2, bovine rod opsin (Bos taurus, UniProt P02699); assay: Gt activation assay; assay type: biochemical
T2 construct: Constitutive activity of bovine opsin in disc membranes; from tissue; host or cells: bovine ROS membranes (opsin membranes and Gt both from bovine ROS)
Procedure: Gt was extracted and purified from frozen bovine ROS membranes as described in Preparation of Opsin Membranes. The intrinsic increase in the fluorescence from Gtα was measured with a L55 luminescence spectrophotometer (PerkinElmer Life Sciences) using an excitation and emission wavelengths of 300 and 345 nm, respectively. […] DMSO-treated opsin membranes were used to obtain a baseline for the basal activity of opsin. The molar ratio of opsin to Gt was 1:10, with opsin at a concentration of 100 nM and Gt at 1000 nM. […] This step was followed by the addition of 300 μM GTPγS (Sigma-Aldrich) to determine the GTPγS-induced complex dissociation and corresponding fluorescence changes. Gt activation rates were determined and plotted for the first 100 s of the Gt activation assay.

C57BL/6 mice [1] = assay: Retinoid cycle analyses (11-cis-retinyl oxime after bleaching); assay type: in vivo, mouse; conditions: 200 mg kg−1 bw i.p., compared to DMSO
Procedure: To test if treatment with YC-001 affects visual pigment regeneration, we quantified the 11-cis-retinyl oxime extracted from retinas of C57BL/6 mice after different periods of dark adaptation following exposure to bright light. Mice at 6 weeks of age were administered YC-001 at 200 mg kg^−1 bw via i.p. injection. At 30 min following YC-001 administration, eyes were dilated with 1% tropicamide. Mice then were anesthetized with a cocktail containing 20 mg mL^−1 of ketamine and 1.75 mg mL^−1 of xylazine at a dose of 4 μL g^−1 bw. Anesthetized mice were exposed to bright light with an intensity of 10,000 lux for 10 min to bleach about 90% of the rhodopsin pigment. Mice then were returned to the dark for recovery. Animals then were euthanized at 0, 2, 4, 6 or 24 h after bleaching and recovery in the dark, and their eyes were removed and homogenized in 1 mL of 1:1 PBS:ethanol mixture (v/v) containing 40 mM hydroxylamine. […] 11-cis-Retinyl oxime released from the regenerated rhodopsin pigments were separated on an Agilent Sil column (5 μm, 4.6×250 mm) with an isocratic flow of 10% ethyl acetate in hexanes (1.5 mL min^−1) and detected at 325 nm. Amounts of 11-cis-retinyl oximes per eye were quantified by normalizing the peak area to an 11-cis-retinyl oxime standard. 11-cis-Retinyl oximes were quantified in three eye samples per condition, and the means and s.d.s were calculated.

C57BL/6 mice [2] = assay: Bw measurements, long-term toxicity by daily i.p. injections; assay type: in vivo; conditions: 100 or 200 mg kg−1 bw daily i.p. Day 14 to 38, vs DMSO
Procedure: To estimate the long-term toxicity of YC-001 in mice, we administered YC-001 to C57BL/6 mice by daily i.p. injections from Day 14 to 38 after birth with one of two doses, either 100 mg kg^−1 or 200 mg kg^−1 bw. Equivalent volumes of DMSO were injected into control groups. Bws of treated mice were measured daily. Each dosage group contained 3 mice including males and females.

T1 sequence (P15409 whole entry): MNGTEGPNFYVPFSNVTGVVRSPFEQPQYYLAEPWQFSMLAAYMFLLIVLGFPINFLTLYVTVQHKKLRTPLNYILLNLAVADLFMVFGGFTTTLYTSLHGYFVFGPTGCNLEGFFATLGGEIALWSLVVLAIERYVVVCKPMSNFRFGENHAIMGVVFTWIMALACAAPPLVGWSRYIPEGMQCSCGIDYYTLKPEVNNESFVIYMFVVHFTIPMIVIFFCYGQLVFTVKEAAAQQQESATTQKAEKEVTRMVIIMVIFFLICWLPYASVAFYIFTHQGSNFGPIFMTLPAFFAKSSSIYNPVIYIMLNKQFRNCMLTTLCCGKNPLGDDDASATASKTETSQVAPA
T2 sequence (P02699 whole entry): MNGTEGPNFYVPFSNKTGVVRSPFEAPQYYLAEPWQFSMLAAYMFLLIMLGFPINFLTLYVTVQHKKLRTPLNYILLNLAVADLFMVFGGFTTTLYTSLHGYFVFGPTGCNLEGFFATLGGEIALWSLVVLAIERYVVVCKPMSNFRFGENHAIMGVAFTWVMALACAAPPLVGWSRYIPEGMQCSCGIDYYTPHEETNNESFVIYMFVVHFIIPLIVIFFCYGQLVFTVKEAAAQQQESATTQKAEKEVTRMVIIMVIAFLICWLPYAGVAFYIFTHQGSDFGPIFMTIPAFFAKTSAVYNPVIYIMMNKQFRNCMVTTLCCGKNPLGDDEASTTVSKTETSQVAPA

cAMP level upon light exposure (rod opsin; NIH3T3-(WT-opsin/GFP) cells, light) | fold increase in EC50 of 9-cis-retinal dose-response curve (rod opsin; with 40 μM YC-001 co-treatment vs 9-cis-retinal alone) [fold] | ln(kinitial), rate of Gt activation of regenerated isorhodopsin upon illumination (bovine rod opsin; 40 μM 9-cis-retinal alone) | Compound | cAMP levels, co-treated with 1 μM 9-cis-retinal under light (rod opsin; FIG. 5c) | pEC50 (rod opsin; either in the dark or light, read-out: EC50 of dose-dependent increase in cAMP levels) | ln(kinitial), initial rate of Gt activation for opsin (bovine rod opsin; 40 μM compound, basal opsin activity) | ln(kinitial), rate of Gt activation of regenerated isorhodopsin upon illumination (bovine rod opsin; co-treated with 40 μM 9-cis-retinal and 40 μM YC-001) | recovery of 11-cis-retinyl oxime after photobleaching (C57BL/6 mice [1]) | behavioral or bw growth changes (C57BL/6 mice [2])
 |  |  | O=C1OCC(c2ccc(Cl)s2)=C1c1cccs1 [YC-001] | dose-dependent elevation in cAMP levels | 5.09 | −6.1 | −4.9 | little difference | no obvious behavioral or bw growth changes
significantly reduced cAMP level | 3 | −4.6 | CC1=C(/C=C/C(C)=C\C=C\C(C)=C\C=O)C(C)(C)CCC1 [9-cis-retinal, reference compound] |  |  |  |  |  | 
